Laboratory results: PMC8495876 (ACS Omega, 2021)

Tests used:
[1] = biological target: human lysosomal α-glucosidase (Homo sapiens, UniProt P10253); assay: α-glucosidase inhibitory activity assay; type: biochemical; conditions: 1.43 mM compound; lysosomal α-glucosidase extracts; pH 4.0, 37 °C
[2] = biological target: α-glucosidase; conditions: previously reported; cited from earlier work

| α-glucosidase inhibition (%) [1] [%] | Compound | IC50 [2] [µM] |
| --- | --- | --- |
| 46 | 1-(α-D-Glucopyranosyl)-4-cyano-phenyl-[1,2,3]-triazole [AGT3] |  |
| 57 | 1-(α-D-Glucopyranosyl)-4-nitro-phenyl-[1,2,3]-triazole [AGT5] |  |
|  | O=c1cc(-c2ccccc2)oc2cc(O)cc(O)c12 [chrysin] | 77 |
